The values below come from US5942494A, “Stimulation of gene expression and synthesis of heat shock protein 72/73 (HSP 70)” (The Trustees of Columbia University in the City of New York, priority 1996, dated 1999).

The test system of one data set is apoB. The conditions noted are these: Sakata, et al., 1993, unpublished data; cited from earlier work.
For data set [1], the system named is 3-hydroxy-3-methylglutaryl-coenzyme A (HMG-CoA) reductase. As to conditions: Inoue, et al., 1991; cited from earlier work.
In a further data set the test system is calpain. The conditions noted are these: Rock, et al., 1994; cited from earlier work.
Another data set concerns proteasomes. The conditions noted are these: Rock, et al., 1994; cited from earlier work.
Another data set concerns Hsp70. In words: Hsp70 levels by denaturing immunoprecipitation of [3H]-leucine radiolabeled HepG2 cells. Format: cell-based, human. The method, then:
The HepG2 cell culture conditions were maintained as previously described (Dixon, et al., 1991). The cells were seeded into collagen-pre-coated dishes or six-well tissue culture plates and grown in complete medium containing minimum essential medium (MEM) with 0.1 mM nonessential amino acids, 1.0 mM sodium pyruvate, penicillin/streptomycin, and 10% fetal bovine serum. Cells were fed fresh complete medium every 3 days and maintained in a 5% CO2 incubator. All experiments were performed by using exponentially growing cells at 90-95% confluency. For heat shock treatment, the dishes were sealed with Parafilm and immersed in a water bath at 42° C. for indicated durations of time. Cells were incubated with ALLN alone at indicated concentrations or combined with other chemicals at 37° C. Cells were also incubated with different protease inhibitors alone at indicated concentrations or combined with other chemicals at 37° C.
(§1) HepG2 cells were preincubated for 4 hours in serum-free MEM and then radiolabeled with ^3 H-Leucine (150 μCi/ml) in a serum-free, leucine-free medium. Preincubation and labeling media each contained either 1.5% bovine serum albumin (BSA) alone, or BSA plus ALLN (40 μg/ml except as otherwise indicated), or BSA plus other protease inhibitors at concentrations indicated in the figure legends. At the indicated times, cells were removed from the 37° C. incubator and placed on ice, washed with cold phosphate-buffer saline (PBS) twice and lysed with lysis buffer containing 1% Triton X-100 (TX100), 1% deoxycholic acid (DOC) and 0.1% SDS in PBS containing proteinase inhibitors: 2 mM phenylmethylsulfonyl fluoride (PMSF); 2 μg/ml ALLN; 2 μg/ml leupeptin; and 2 μg/ml aprotinin. After a 30 min. incubation with lysis buffer at 4° C., the lysates were centrifuged at 14,000 g in a microcentrifuge for 5 min., and the supernatants were adjusted to 1% SDS concentration and boiled for 5 min. to denature the proteins. 1% TX100 was then added to dilute the lysates to a final concentration of 0.1% SDS. Cell lysates containing equal amounts of trichloroacetic acid (TCA)-insoluble radioactivity were used for immunoprecipitations by incubating with individual monoclonal antibody (1 μg/ml) for 2.5 hours at 4° C. Protein-A Sepharose 4B was added afterwards and the lysates incubated for another 1.5 hours at 4° C. to collect the immunocomplexes. After washing four times with 1×NET buffer (containing 0.5% TX100, 0.1% SDS), the immunocomplexes were mixed with sample buffer and boiled for 5 min. Following centrifugation, the supernatants were aliquoted for scintillation counting and for 3-15% gradient polyacrymide gel electrophoresis (SDS-PAGE) . The gels were later subjected to fluorography. All values are presented as the mean ± S.D. from three individual experiments except as otherwise indicated.
Denaturing immunoprecipitation was chosen because Hsp70 is a major cytosolic chaperone protein and it is co-immunoprecipitated with a number of other proteins under non-denaturingconditions (Beckmann, et al., 1990; Zhou, et al., 1995).

A further data set concerns the target cathepsin B (Homo sapiens, UniProt P07858). As to conditions: Rock, et al., 1994; cited from earlier work.
Another data set has as its system HepG2 cells. The data set is described as follows: Total incorporation of radiolabel (TCA cpm) as indicator of cell toxicity, HepG2. Format: cell-based, human. As to conditions: HepG2, 4 hours; MG132 10 or 30 μM; lactacystin 10 μM. The method, then: as §1
The subject of data set [2] is cysteine protease, serine protease, trypsin or chymotrypsin. The conditions noted are these: even upon extended exposure, Ward, et al., 1995, Fenteany; cited from earlier work.

Molecules are shown by their SMILES. Peptide text beside a SMILES is read from it.

In the case of `CSCC[C@@H](C=O)NC(=O)[C@H](CC(C)C)NC(=O)[C@H](CC(C)C)NC(C)=O` [ALLM, N-acetyl-leucyl-leucyl-methioninal] (Ac-Leu-Leu-Met-aldehyde), the “Protection of apoB” value with apoB is “less effectively”. Moreover, in data set [1], the “Protection of HMG-CoA reductase” value is recorded as “less effectively”. Besides, in the data set on calpain, the Activity against calpain result was “significant activities”. Besides, in the data set on proteasomes, the Inhibition of proteasomes result is given as “potent inhibitors”. Further, the “Ability to induce Hsp70 levels compared with ALLN” value in the data set on Hsp70 (HepG2, 40 μg/ml, 4 hours) is recorded as “less ability to induce Hsp70 levels”. In addition, the “Induction of Hsp70 by protease inhibitors” value with Hsp70 (HepG2, 4 hours pre-treatment, ALLN, ALLM 40 μg/ml, leupeptin, pepstatin A 50 μg/ml, E-64d 25 μg/ml, PMSF 1 mM, aprotinin 100 KIU/ml, Benz 1 mM, CIP 200 μM) was “significantly induce”. At cathepsin B, the “Activity against cathepsin B” value is given as “significant activities”.
On to `CC(=O)N[C@@H](CSC(=O)[C@]1([C@@H](O)C(C)C)NC(=O)[C@H](C)[C@@H]1O)C(=O)O` [lactacystin], for which the “Toxicity to the cells (TCA-precipitable radioactivities)” value in the data set with HepG2 cells is “without obvious toxicity”. In addition, the “Effect on cysteine protease, serine protease, trypsin or chymotrypsin” value in data set [2] was “no detectable effect”. Besides, in the data set with Hsp70 (HepG2, 4 hours, MG132 10 μM or 30 μM, lactacystin 10 μM, 30 min radiolabeling), the “Induction of Hsp70 levels by proteasome inhibitors” value is given as “induced Hsp70 levels dramatically”.
